Measurements taken from patent US6506765B2 (TAP Pharmaceutical Products, Inc., priority 2000, dated 2003).
Like-named read-outs stand apart in the source and are kept apart here.

Tests used:
[1] = target: calcitonin gene related peptide (CGRP) (Homo sapiens, UniProt O60894+Q16602); assay: radioligand binding assay, CGRP
[2] = target: Serotonin 5-HT7 (Homo sapiens, UniProt P34969); assay: radioligand binding assay, Serotonin 5-HT7
Experimental: (§1) Routine radioligand binding assays were performed using reference standards according to established methodology. IC50 values were determined by a non-linear least square regression analysis.

[3] = target: Adrenergic α1A (Homo sapiens, UniProt P35348); assay: radioligand binding assay, Adrenergic α1A
Experimental: as §1

[4] = target: muscarinic M2 (Homo sapiens, UniProt P08172); assay: radioligand binding assay, muscarinic M2
Experimental: as §1

[5] = target: adrenergic β2 (Homo sapiens, UniProt P07550); assay: radioligand binding assay, adrenergic β2
Experimental: as §1

[6] = target: opiate κ (Homo sapiens, UniProt P41145); assay: radioligand binding assay, opiate κ
Experimental: as §1

[7] = target: neuropeptide Y NPY1 (Homo sapiens, UniProt P25929); assay: radioligand binding assay, neuropeptide Y NPY1
Experimental: as §1

[8] = target: tachykinin NK2 (Homo sapiens, UniProt P21452); assay: radioligand binding assay, tachykinin NK2
[9] = target: Serotonin 5-HT6 (Homo sapiens, UniProt P50406); assay: radioligand binding assay, Serotonin 5-HT6
[10] = target: gamma aminobutyric acid GABAB (Homo sapiens, UniProt Q9UBS5); assay: radioligand binding assay, GABAB
[11] = target: Adrenergic α1B (Homo sapiens, UniProt P35368); assay: radioligand binding assay, Adrenergic α1B
[12] = tested on: dopamine D4.7; assay: radioligand binding assay, dopamine D4.7
Experimental: as §1

[13] = target: dopamine D4.4 (Homo sapiens, UniProt P21917); assay: radioligand binding assay, dopamine D4.4
Experimental: as §1

[14] = target: adrenergic β1 (Homo sapiens, UniProt P08588); assay: radioligand binding assay, adrenergic β1
Experimental: as §1

[15] = target: muscarinic M5 (Homo sapiens, UniProt P08912); assay: radioligand binding assay, muscarinic M5
[16] = target: muscarinic M4 (Homo sapiens, UniProt P08173); assay: radioligand binding assay, muscarinic M4
[17] = target: tachykinin NK1 (Homo sapiens, UniProt P25103); assay: radioligand binding assay, tachykinin NK1
[18] = target: Serotonin 5-HT1B (Homo sapiens, UniProt P28222); assay: radioligand binding assay, Serotonin 5-HT1B
[19] = target: Adrenergic α2C (Homo sapiens, UniProt P18825); assay: biochemical
Experimental: as §1

[20] = target: neuropeptide Y NPY2 (Homo sapiens, UniProt P49146); assay: radioligand binding assay, neuropeptide Y NPY2
Experimental: as §1

[21] = target: vasoactive intestinal peptide (VIP1) (Homo sapiens, UniProt P32241); assay: radioligand binding assay, VIP1
[22] = target: muscarinic M3 (Homo sapiens, UniProt P20309); assay: radioligand binding assay, muscarinic M3
Experimental: as §1

[23] = tested on: gamma aminobutyric acid GABAA; assay: radioligand binding assay, GABAA
[24] = tested on: nicotinic; assay: radioligand binding assay, nicotinic
[25] = target: opiate δ (Homo sapiens, UniProt P41143); assay: radioligand binding assay, opiate δ
Experimental: as §1

[26] = target: Adrenergic α2A (Homo sapiens, UniProt P08913); assay: radioligand binding assay, Adrenergic α2A
Experimental: as §1

[27] = target: Serotonin 5-HT1D (Homo sapiens, UniProt P28221); assay: radioligand binding assay, Serotonin 5-HT1D
Experimental: as §1

[28] = target: tachykinin NK3 (Homo sapiens, UniProt P29371); assay: radioligand binding assay, tachykinin NK3
[29] = tested on: nitric oxide synthetase; assay: activity of nitric oxide synthetase; format: biochemical
[30] = target: Serotonin 5-HT2; assay: radioligand binding assay, Serotonin 5-HT2
[31] = target: Opiate μ (Homo sapiens, UniProt P35372); assay: radioligand binding assay, Opiate μ
Experimental: as §1

[32] = target: serotonin 5-HT4 (Homo sapiens, UniProt Q13639); assay: radioligand binding assay, serotonin 5-HT4
[33] = tested on: dopamine D4.2; assay: radioligand binding assay, dopamine D4.2
Experimental: as §1

[34] = target: adrenergic β3 (Homo sapiens, UniProt P13945); assay: radioligand binding assay, adrenergic β3
Experimental: as §1

[35] = target: Serotonin 5-HT2A (Homo sapiens, UniProt P28223); assay: radioligand binding assay, Serotonin 5-HT2A
Experimental: as §1

[36] = target: Adrenergic α2B (Homo sapiens, UniProt P18089); assay: radioligand binding assay, Adrenergic α2B
Experimental: as §1

[37] = target: Dopamine D2S (Homo sapiens, UniProt P14416); assay: radioligand binding assay, Dopamine D2S
Experimental: as §1

[38] = target: muscarinic M1 (Homo sapiens, UniProt P11229); assay: radioligand binding assay, muscarinic M1
Experimental: as §1

[39] = target: Serotonin 5-HT1A (Homo sapiens, UniProt P08908); assay: radioligand binding assay, Serotonin 5-HT1A
Experimental: as §1

[40] = target: Dopamine D3 (Homo sapiens, UniProt P35462); assay: radioligand binding assay, Dopamine D3
Experimental: as §1

Sequence of Serotonin 5-HT6 (P50406 whole entry): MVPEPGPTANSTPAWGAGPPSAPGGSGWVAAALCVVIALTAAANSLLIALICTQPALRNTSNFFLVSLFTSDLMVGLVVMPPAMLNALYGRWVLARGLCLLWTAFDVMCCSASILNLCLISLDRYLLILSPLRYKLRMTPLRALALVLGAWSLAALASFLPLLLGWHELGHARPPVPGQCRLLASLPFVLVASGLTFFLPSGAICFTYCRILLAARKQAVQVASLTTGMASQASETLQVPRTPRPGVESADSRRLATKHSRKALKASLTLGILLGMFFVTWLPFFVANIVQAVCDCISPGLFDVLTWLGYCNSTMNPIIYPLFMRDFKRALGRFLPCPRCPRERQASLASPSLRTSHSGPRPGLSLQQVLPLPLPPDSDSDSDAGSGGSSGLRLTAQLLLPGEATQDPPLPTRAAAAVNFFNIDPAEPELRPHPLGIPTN
Sequence of muscarinic M3 (P20309 whole entry): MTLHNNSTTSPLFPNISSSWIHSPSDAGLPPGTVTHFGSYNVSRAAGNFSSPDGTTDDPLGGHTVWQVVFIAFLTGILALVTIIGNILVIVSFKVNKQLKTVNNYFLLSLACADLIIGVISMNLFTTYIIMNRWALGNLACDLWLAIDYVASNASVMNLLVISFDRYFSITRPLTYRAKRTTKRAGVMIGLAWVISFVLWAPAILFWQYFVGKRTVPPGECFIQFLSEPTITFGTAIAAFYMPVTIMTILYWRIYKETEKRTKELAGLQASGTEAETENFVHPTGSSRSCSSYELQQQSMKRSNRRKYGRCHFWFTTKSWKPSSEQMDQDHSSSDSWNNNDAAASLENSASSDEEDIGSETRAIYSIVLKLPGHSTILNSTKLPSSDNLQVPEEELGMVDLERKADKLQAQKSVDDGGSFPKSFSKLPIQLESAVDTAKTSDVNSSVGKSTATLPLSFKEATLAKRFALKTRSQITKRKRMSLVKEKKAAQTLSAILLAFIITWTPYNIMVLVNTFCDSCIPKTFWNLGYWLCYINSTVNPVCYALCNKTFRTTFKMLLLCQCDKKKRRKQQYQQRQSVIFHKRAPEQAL
Sequence of adrenergic β2 (P07550 whole entry): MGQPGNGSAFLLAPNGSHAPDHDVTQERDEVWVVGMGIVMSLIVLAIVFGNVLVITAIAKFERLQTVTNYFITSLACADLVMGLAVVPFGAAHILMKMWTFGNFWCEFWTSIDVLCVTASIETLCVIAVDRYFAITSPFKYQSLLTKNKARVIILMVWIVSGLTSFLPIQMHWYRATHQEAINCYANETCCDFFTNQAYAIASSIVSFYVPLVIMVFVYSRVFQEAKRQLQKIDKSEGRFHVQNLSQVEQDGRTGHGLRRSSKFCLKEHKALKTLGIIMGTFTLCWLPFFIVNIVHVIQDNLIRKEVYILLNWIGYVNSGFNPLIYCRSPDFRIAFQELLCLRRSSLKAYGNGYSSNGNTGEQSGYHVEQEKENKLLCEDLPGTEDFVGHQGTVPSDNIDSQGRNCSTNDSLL
Sequence of tachykinin NK3 (P29371 whole entry): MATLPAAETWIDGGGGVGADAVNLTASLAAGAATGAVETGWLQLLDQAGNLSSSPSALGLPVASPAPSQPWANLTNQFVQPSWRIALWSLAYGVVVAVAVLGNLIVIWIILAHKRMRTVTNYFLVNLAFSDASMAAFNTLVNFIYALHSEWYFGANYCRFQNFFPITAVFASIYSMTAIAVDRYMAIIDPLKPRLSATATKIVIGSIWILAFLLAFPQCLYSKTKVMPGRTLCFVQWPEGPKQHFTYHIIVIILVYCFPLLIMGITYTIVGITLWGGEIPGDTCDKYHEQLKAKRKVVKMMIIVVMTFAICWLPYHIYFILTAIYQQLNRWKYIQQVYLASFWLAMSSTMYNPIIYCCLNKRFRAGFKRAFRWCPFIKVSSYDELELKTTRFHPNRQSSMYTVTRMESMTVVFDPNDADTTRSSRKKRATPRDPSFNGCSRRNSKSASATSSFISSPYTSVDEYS
Sequence of muscarinic M5 (P08912 whole entry): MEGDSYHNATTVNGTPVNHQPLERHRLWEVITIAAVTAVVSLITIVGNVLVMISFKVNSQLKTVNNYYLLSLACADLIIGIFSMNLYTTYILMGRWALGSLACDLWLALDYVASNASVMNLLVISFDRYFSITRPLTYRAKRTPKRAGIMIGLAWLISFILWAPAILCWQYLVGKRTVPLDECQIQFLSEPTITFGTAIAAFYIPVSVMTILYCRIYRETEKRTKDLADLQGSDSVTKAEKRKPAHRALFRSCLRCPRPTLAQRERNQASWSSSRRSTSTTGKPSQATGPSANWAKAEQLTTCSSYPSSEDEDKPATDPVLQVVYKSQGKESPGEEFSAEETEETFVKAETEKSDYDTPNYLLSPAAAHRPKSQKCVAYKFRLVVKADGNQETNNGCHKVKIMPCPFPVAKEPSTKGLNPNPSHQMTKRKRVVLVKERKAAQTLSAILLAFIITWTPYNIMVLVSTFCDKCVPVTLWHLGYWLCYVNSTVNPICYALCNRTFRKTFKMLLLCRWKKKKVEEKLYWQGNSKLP
Sequence of Opiate μ (P35372 whole entry): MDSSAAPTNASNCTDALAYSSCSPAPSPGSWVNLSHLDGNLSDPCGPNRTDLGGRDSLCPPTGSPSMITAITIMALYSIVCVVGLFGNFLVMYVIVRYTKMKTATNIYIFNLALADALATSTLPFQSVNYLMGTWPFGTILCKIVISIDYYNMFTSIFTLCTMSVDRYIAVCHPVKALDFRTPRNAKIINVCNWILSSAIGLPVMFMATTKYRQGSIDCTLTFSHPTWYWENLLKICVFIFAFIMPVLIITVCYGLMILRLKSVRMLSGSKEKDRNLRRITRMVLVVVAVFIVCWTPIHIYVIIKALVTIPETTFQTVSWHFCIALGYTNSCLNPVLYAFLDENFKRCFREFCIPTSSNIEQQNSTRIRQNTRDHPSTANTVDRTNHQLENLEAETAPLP
Sequence of serotonin 5-HT4 (Q13639 whole entry): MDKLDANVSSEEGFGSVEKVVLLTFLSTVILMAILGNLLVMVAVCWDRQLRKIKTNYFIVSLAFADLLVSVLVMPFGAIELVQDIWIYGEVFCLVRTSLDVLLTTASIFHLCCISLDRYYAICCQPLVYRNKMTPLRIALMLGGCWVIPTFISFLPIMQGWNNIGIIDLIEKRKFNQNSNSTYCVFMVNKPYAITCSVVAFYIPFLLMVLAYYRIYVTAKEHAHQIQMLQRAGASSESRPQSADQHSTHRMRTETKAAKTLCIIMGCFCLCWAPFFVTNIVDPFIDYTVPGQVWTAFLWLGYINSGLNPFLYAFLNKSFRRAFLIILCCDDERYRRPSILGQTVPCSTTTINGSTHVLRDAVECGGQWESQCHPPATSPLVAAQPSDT
Sequence of Serotonin 5-HT1B (P28222 whole entry): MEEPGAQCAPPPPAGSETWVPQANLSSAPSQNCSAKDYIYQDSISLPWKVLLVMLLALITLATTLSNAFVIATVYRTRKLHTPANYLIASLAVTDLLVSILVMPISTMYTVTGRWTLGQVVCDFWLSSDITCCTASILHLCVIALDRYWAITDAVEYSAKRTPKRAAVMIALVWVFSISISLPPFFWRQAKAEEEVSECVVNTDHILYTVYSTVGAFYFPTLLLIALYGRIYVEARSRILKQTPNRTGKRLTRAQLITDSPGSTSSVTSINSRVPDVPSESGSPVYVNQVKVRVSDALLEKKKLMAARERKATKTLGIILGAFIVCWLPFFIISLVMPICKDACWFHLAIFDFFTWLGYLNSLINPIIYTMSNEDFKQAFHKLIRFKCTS
Sequence of Serotonin 5-HT2A (P28223 whole entry): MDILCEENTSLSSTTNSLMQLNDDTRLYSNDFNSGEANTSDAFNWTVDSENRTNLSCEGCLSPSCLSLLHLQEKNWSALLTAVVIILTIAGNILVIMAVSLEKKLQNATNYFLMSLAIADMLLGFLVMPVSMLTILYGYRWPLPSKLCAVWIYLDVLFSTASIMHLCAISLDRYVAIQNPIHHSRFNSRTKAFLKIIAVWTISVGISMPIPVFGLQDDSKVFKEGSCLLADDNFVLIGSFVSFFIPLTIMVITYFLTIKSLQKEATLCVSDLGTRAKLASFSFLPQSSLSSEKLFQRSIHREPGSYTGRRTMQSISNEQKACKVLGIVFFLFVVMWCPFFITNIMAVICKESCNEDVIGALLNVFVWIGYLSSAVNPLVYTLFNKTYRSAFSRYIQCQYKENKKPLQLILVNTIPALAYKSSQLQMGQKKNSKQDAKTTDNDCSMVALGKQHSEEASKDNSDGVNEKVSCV
Sequence of adrenergic β1 (P08588 whole entry): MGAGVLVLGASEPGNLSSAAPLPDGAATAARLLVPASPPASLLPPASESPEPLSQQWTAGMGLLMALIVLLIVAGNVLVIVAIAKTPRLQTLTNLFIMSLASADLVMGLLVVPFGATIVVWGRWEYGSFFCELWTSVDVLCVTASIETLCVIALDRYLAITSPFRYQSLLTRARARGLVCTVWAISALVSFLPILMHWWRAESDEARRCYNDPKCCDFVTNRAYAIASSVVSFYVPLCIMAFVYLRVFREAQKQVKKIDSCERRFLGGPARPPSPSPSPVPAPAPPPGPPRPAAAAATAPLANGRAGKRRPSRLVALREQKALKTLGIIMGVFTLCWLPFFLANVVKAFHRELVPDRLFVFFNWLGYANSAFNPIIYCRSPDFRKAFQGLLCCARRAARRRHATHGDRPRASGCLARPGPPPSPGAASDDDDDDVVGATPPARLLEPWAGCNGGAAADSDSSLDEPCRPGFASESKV
Sequence of tachykinin NK2 (P21452 whole entry): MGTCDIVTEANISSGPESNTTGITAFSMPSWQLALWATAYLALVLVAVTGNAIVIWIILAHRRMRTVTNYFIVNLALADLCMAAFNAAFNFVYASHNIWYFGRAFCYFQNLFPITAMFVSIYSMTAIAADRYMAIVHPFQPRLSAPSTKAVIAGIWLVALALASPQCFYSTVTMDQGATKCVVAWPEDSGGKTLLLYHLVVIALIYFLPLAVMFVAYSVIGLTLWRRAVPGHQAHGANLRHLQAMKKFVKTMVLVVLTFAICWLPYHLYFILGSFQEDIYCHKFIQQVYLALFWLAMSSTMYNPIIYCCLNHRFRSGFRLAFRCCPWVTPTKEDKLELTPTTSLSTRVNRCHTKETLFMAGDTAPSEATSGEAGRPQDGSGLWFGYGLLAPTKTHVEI

| Compound | binding activity [1] | Ki [3] [nM] | binding activity [4] | binding activity [5] | binding activity [7] | binding activity [8] | Ki [9] [nM] | binding activity [10] | binding activity [12] | binding activity [13] | binding activity [14] | binding activity [15] | binding activity [16] | binding activity [17] | Ki [18] [nM] | binding activity [20] | binding activity [21] | binding activity [22] | binding activity [23] | binding activity [24] | further results |
| --- | --- | --- | --- | --- | --- | --- | --- | --- | --- | --- | --- | --- | --- | --- | --- | --- | --- | --- | --- | --- | --- |
| CN1CCc2cccc3c2[C@H]1Cc1ccc(O)c(O)c1-3 [Apomorphine, (R)-5,6,6a,7-tetrahydro-6-methyl-4H-dibenzo-[de,g]quinoline-10,11-diol] | No significant binding activity | 343 | No significant binding activity | No significant binding activity | No significant binding activity | No significant binding activity | 206 | No significant binding activity | No significant binding activity | No significant binding activity | No significant binding activity | No significant binding activity | No significant binding activity | No significant binding activity | 205 | No significant binding activity | No significant binding activity | No significant binding activity | No significant binding activity | No significant binding activity | Ki [2]: 65 nM; binding activity [6]: No significant binding activity; Ki [11]: 882 nM; Ki [19]: 19 nM; binding activity [25]: No significant binding activity; Ki [26]: 71 nM; Ki [27]: 288 nM; binding activity [28]: No significant binding activity; effect on the activity of nitric oxide synthetase [29]: neither apomorphine nor its metabolite norapomorphine demonstrated any significant effect; Ki ([30]; read-out: Ki): 111 nM; binding activity [31]: No significant binding activity; binding activity [32]: No significant binding activity; binding activity [33]: No significant binding activity; binding activity [34]: No significant binding activity; Ki [35]: 27 nM |
| Oc1ccc2c(c1O)-c1cccc3c1C(C2)NCC3 (stereo not shown) [Norapomorphine, norapomorphine] | did not bind significantly | 4170 | did not bind significantly | did not bind significantly | did not bind significantly | did not bind significantly | 1670 | did not bind significantly | did not bind significantly | did not bind significantly | did not bind significantly | did not bind significantly | did not bind significantly | did not bind significantly | 3560 | did not bind significantly | did not bind significantly | did not bind significantly | did not bind significantly | did not bind significantly | Ki [36]: 213 nM; Ki ([2]; Serotonin 5-HT7, read-out: Ki): 1380 nM; Ki [37]: 1100 nM; binding activity [38]: did not bind significantly; Ki [39]: 439 nM; Ki ([26]; Adrenergic α2A, read-out: Ki): 1430 nM; binding activity [28]: did not bind significantly; effect on the activity of nitric oxide synthetase [29]: neither apomorphine nor its metabolite norapomorphine demonstrated any significant effect; Ki [30]: N/S (N/S = no significant activity (≧50% at 10 μM)); Ki [31]: 2090 nM; binding activity [32]: did not bind significantly; Ki [40]: 117 nM; binding activity [33]: did not bind significantly; binding activity [34]: did not bind significantly; Ki ([35]; Serotonin 5-HT2A, read-out: Ki): 1120 nM |
